What was measured:
Set-up in all cases: scale not given: the % may be the effect or the level left
[1] = target: Calcium/calmodulin-dependent protein kinase type II subunit beta (Homo sapiens) (UniProt Q13554); experiment: Inhibition of human CAMK2b assessed as enzyme activity at 1 uM relative to control
[2] = target: SRSF protein kinase 1 (Homo sapiens) (UniProt Q96SB4); experiment: Inhibition of human SRPK1 assessed as enzyme activity at 1 uM relative to control
[3] = target: Inhibitor of nuclear factor kappa-B kinase subunit beta (Homo sapiens) (UniProt O14920); experiment: Inhibition of human IKKbeta assessed as enzyme activity at 1 uM relative to control
TAK1/TAB1 (Homo sapiens) = TAK1/TAB1 (Homo sapiens) (UniProt Q15750+O43318); experiment: Inhibition of human TAK1-TAB1 assessed as enzyme activity at 1 uM relative to control; format: protein-complex assay
[4] = target: SRSF protein kinase 3 (Homo sapiens) (UniProt Q9UPE1); experiment: Inhibition of human MSSK1 assessed as enzyme activity at 1 uM relative to control
[5] = target: Ribosomal protein S6 kinase alpha-1 (Homo sapiens) (UniProt Q15418); experiment: Inhibition of human Rsk1 assessed as enzyme activity at 1 uM relative to control
Ribosomal protein S6 kinase alpha-1 (Homo sapiens), sequence (Q15418 whole entry): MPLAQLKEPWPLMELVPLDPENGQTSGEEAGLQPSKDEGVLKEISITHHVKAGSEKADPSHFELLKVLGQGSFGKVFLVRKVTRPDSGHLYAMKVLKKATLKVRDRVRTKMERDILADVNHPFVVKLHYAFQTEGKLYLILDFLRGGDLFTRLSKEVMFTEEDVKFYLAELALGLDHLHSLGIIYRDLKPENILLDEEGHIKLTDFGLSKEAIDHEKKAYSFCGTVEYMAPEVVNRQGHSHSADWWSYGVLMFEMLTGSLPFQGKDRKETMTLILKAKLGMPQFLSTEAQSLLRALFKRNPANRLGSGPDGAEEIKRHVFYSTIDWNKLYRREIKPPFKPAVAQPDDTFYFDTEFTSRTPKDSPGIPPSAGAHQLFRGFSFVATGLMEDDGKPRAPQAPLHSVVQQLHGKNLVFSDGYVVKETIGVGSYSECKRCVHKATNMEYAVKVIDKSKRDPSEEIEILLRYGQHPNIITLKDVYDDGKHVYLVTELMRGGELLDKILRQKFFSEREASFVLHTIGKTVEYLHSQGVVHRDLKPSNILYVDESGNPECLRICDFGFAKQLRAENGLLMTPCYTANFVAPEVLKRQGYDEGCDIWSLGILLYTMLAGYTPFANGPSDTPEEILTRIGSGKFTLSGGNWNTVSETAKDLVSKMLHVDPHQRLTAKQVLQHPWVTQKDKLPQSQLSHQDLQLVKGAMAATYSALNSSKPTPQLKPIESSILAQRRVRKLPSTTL

[6] = target: Protein kinase C alpha type (Homo sapiens) (UniProt P17252); experiment: Inhibition of human PKCalpha assessed as enzyme activity at 1 uM relative to control
[7] = target: Ephrin type-A receptor 2 (Homo sapiens) (UniProt P29317); experiment: Inhibition of human EphA2 assessed as enzyme activity at 1 uM relative to control
[8] = target: Rho-associated protein kinase 2 (Homo sapiens) (UniProt O75116); experiment: Inhibition of human ROCK-2 assessed as enzyme activity at 1 uM relative to control
[9] = target: MAP kinase-activated protein kinase 2 (Homo sapiens) (UniProt P49137); experiment: Inhibition of human MAPKAP-K2 assessed as enzyme activity at 1 uM relative to control
[10] = target: Epidermal growth factor receptor (Homo sapiens) (UniProt P00533); experiment: Inhibition of human EGFR assessed as enzyme activity at 1 uM relative to control
[11] = target: SRSF protein kinase 2 (Homo sapiens) (UniProt P78362); experiment: Inhibition of human SRPK2 assessed as enzyme activity at 1 uM relative to control
[12] = target: Serine/threonine-protein kinase MRCK alpha (Homo sapiens) (UniProt Q5VT25); experiment: Inhibition of human MRCKalpha assessed as enzyme activity at 1 uM relative to control
[13] = target: Calcium/calmodulin-dependent protein kinase type IV (Homo sapiens) (UniProt Q16566); experiment: Inhibition of human CAMK4 assessed as enzyme activity at 1 uM relative to control
Calcium/calmodulin-dependent protein kinase type IV (Homo sapiens), sequence (Q16566 whole entry): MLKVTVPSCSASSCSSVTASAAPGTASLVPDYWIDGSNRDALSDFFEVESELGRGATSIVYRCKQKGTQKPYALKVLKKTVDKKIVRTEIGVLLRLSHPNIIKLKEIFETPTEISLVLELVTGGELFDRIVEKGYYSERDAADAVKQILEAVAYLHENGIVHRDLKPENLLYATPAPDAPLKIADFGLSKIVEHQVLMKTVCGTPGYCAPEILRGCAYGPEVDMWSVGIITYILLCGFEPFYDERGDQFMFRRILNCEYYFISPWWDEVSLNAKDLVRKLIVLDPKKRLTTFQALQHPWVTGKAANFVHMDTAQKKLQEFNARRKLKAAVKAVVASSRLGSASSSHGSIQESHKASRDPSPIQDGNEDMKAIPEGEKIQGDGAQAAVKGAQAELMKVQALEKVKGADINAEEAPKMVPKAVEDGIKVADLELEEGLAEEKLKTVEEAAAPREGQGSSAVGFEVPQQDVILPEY

[14] = target: Eukaryotic elongation factor 2 kinase (Homo sapiens) (UniProt O00418); experiment: Inhibition of human eEF-2K assessed as enzyme activity at 1 uM relative to control
Eukaryotic elongation factor 2 kinase (Homo sapiens), sequence (O00418 whole entry, canonical isoform): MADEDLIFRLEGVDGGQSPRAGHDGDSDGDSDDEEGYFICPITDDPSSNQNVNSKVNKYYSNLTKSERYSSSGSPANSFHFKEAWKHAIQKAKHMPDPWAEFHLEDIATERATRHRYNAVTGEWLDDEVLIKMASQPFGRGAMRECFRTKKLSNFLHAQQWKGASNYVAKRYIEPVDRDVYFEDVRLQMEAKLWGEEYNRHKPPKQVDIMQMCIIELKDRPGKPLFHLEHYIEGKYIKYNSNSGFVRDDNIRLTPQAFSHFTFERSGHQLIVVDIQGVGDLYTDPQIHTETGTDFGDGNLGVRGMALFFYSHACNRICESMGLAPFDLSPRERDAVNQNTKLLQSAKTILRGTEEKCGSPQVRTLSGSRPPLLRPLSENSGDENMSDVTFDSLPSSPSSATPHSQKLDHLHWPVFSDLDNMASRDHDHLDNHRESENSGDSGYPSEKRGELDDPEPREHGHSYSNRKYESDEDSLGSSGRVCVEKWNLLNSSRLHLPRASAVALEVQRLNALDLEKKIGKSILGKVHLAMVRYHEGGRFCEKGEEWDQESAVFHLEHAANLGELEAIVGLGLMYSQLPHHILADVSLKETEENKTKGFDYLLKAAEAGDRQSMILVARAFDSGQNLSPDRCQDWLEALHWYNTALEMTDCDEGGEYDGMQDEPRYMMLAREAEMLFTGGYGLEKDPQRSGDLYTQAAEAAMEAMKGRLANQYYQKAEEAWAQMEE

[15] = target: Casein kinase I isoform gamma-1 (Homo sapiens) (UniProt Q9HCP0); experiment: Inhibition of human CK1gamma1 assessed as enzyme activity at 1 uM relative to control
[16] = target: Tyrosine-protein kinase JAK3 (Homo sapiens) (UniProt P52333); experiment: Inhibition of human JAK3 assessed as enzyme activity at 1 uM relative to control
[17] = target: Tyrosine-protein kinase receptor TYRO3 (Homo sapiens) (UniProt Q06418); experiment: Inhibition of human Rse assessed as enzyme activity at 1 uM relative to control
[18] = target: Death-associated protein kinase 3 (Homo sapiens) (UniProt O43293); experiment: Inhibition of human DAPK3 assessed as enzyme activity at 1 uM relative to control
[19] = target: Serine/threonine-protein kinase haspin (Homo sapiens) (UniProt Q8TF76); experiment: Inhibition of human Haspin assessed as enzyme activity at 1 uM relative to control
[20] = target: CDK2/Cyclin A2 (Homo sapiens) (UniProt P24941+P20248); experiment: Inhibition of human CDK2/cyclinA assessed as enzyme activity at 1 uM relative to control; format: protein-complex assay
[21] = target: Serine/threonine-protein kinase PLK2 (Homo sapiens) (UniProt Q9NYY3); experiment: Inhibition of human Plk2 assessed as enzyme activity at 1 uM relative to control
Serine/threonine-protein kinase PLK2 (Homo sapiens), sequence (Q9NYY3 whole entry, looked up): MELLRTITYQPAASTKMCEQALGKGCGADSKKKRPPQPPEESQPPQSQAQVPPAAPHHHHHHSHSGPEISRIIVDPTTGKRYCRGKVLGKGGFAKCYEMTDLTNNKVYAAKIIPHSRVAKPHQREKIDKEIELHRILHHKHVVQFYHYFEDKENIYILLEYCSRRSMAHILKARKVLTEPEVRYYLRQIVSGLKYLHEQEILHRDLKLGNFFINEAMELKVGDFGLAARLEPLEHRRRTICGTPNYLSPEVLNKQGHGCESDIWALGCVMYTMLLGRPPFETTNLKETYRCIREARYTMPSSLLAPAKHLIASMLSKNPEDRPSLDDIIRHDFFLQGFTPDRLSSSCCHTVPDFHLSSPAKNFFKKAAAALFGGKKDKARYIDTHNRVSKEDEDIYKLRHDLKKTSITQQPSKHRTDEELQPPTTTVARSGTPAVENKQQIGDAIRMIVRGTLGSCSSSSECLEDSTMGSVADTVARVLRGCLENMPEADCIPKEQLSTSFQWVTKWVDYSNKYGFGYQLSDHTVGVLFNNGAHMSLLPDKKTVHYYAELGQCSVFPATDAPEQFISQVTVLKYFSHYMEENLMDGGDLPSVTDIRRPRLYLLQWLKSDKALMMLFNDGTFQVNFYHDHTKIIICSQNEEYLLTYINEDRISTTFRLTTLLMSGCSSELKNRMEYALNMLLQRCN

[22] = target: BDNF/NT-3 growth factors receptor (Homo sapiens) (UniProt Q16620); experiment: Inhibition of human TrkB assessed as enzyme activity at 1 uM relative to control
[23] = target: Protein kinase C theta type (Homo sapiens) (UniProt Q04759); experiment: Inhibition of human PKCtheta assessed as enzyme activity at 1 uM relative to control
[24] = target: Serine/threonine-protein kinase Sgk3 (Homo sapiens) (UniProt Q96BR1); experiment: Inhibition of human SGK3 assessed as enzyme activity at 1 uM relative to control
[25] = target: Serine/threonine-protein kinase tousled-like 2 (Homo sapiens) (UniProt Q86UE8); experiment: Inhibition of human TLK2 assessed as enzyme activity at 1 uM relative to control
[26] = target: Testis-specific serine/threonine-protein kinase 2 (Homo sapiens) (UniProt Q96PF2); experiment: Inhibition of human TSSK2 assessed as enzyme activity at 1 uM relative to control
[27] = target: MAP kinase-interacting serine/threonine-protein kinase 2 (Homo sapiens) (UniProt Q9HBH9); experiment: Inhibition of human MKNK2 assessed as enzyme activity at 1 uM relative to control
[28] = target: cGMP-dependent protein kinase 1 (Homo sapiens) (UniProt Q13976); experiment: Inhibition of human PRKG1beta assessed as enzyme activity at 1 uM relative to control
[29] = target: Death-associated protein kinase 1 (Homo sapiens) (UniProt P53355); experiment: Inhibition of human DAPK1 assessed as enzyme activity at 1 uM relative to control
[30] = target: Serine/threonine-protein kinase TAO2 (Homo sapiens) (UniProt Q9UL54); experiment: Inhibition of human TAO2 assessed as enzyme activity at 1 uM relative to control
[31] = target: Tyrosine-protein kinase SYK (Homo sapiens) (UniProt P43405); experiment: Inhibition of human Syk assessed as enzyme activity at 1 uM relative to control
[32] = target: mTOR/FKBP12A/FKBP12B (Homo sapiens) (UniProt P62942+P68106+P42345); experiment: Inhibition of human mTOR/FKBP12 assessed as enzyme activity at 1 uM relative to control; format: protein-complex assay
mTOR/FKBP12A/FKBP12B (Homo sapiens), sequence (P62942 2-108 limits assumed, other chains not shown): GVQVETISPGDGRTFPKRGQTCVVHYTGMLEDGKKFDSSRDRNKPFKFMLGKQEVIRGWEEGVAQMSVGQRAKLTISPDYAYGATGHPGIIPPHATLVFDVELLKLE
mTOR/FKBP12A/FKBP12B (Homo sapiens), sequence (P68106 whole entry partner, other chains not shown): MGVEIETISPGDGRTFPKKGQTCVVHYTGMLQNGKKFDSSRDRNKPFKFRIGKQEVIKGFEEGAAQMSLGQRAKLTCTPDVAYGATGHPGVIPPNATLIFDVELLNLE

[33] = target: Glycogen synthase kinase-3 beta (Homo sapiens) (UniProt P49841); experiment: Inhibition of human GSK3beta assessed as enzyme activity at 1 uM relative to control
[34] = target: Insulin receptor (Homo sapiens) (UniProt P06213); experiment: Inhibition of human activated IR assessed as enzyme activity at 1 uM relative to control
Insulin receptor (Homo sapiens), sequence (P06213 28-758 limits assumed): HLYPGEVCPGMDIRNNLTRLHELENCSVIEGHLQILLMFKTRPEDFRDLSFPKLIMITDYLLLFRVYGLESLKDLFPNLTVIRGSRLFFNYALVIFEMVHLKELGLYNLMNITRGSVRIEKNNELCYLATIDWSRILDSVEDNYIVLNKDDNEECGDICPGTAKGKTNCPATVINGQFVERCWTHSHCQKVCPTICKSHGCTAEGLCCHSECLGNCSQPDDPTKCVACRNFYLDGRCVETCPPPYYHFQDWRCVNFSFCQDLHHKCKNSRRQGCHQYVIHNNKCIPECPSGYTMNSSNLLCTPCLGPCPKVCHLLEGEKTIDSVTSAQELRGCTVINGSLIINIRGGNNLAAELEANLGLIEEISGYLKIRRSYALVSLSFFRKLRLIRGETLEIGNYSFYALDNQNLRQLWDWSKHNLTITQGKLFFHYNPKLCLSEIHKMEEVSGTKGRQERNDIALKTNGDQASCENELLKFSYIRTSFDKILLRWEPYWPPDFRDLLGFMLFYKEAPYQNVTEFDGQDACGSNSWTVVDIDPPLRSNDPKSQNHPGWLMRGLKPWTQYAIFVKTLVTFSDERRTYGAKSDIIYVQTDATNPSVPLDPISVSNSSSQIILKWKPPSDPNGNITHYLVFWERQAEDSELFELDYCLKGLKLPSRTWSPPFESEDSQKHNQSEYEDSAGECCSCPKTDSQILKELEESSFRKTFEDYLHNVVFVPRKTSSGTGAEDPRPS
Insulin receptor (Homo sapiens), sequence (P06213 763-1382 limits assumed): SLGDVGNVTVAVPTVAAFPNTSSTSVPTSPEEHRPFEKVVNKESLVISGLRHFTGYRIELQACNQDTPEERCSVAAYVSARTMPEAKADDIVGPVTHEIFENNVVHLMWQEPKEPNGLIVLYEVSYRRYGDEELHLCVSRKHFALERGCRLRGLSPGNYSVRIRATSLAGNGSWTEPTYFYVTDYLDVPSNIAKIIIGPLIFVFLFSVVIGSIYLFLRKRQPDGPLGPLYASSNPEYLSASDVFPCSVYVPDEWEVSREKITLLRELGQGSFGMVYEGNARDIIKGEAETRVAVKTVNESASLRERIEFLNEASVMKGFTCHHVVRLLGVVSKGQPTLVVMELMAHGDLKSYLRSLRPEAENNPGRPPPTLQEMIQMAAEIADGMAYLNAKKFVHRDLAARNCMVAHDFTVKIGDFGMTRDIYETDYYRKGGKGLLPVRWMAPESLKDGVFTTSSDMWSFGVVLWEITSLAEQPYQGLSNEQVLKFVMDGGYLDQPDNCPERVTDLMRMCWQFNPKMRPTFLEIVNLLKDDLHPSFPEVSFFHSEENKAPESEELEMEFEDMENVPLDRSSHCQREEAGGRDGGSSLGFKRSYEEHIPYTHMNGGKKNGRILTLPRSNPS

[35] = target: Serine/threonine-protein kinase BRSK1 (Homo sapiens) (UniProt Q8TDC3); experiment: Inhibition of human BrSK1 assessed as enzyme activity at 1 uM relative to control
Serine/threonine-protein kinase BRSK1 (Homo sapiens), sequence (Q8TDC3 whole entry): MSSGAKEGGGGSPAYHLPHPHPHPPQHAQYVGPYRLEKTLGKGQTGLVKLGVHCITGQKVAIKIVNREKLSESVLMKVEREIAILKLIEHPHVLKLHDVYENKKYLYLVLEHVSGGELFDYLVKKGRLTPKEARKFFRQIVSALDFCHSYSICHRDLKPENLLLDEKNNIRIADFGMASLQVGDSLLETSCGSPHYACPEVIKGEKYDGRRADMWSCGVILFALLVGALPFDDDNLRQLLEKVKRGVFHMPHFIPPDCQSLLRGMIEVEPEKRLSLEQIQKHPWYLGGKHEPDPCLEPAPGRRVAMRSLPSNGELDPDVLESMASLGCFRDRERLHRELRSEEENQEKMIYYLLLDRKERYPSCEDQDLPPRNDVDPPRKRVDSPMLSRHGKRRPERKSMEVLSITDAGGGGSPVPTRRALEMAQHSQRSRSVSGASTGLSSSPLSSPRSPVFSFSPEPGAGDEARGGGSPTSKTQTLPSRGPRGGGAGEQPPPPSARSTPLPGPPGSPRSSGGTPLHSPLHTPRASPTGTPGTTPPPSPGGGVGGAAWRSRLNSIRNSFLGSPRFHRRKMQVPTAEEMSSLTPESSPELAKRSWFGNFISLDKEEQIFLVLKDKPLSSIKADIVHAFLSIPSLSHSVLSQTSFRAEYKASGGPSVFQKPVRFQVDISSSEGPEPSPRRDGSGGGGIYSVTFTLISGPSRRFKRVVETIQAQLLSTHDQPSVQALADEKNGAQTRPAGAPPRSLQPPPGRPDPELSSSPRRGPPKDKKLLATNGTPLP

[36] = target: Serine/threonine-protein kinase Nek6 (Homo sapiens) (UniProt Q9HC98); experiment: Inhibition of human NEK6 assessed as enzyme activity at 1 uM relative to control
[37] = target: Tyrosine-protein kinase Lck (Homo sapiens) (UniProt P06239); experiment: Inhibition of human Lck assessed as enzyme activity at 1 uM relative to control

SMILES: CCCS(=O)(=O)Nc1cccc(Nc2ccc3ncn(C)c(=O)c3c2)c1C#N
- Activity [1]: 107%
- Activity [2]: 109%
- Activity [3]: 104%
- Activity (TAK1/TAB1 (Homo sapiens)): 95.5%
- Activity [4]: 115%
- Activity [5]: 145%
- Activity [6]: 97%
- Activity [7]: 99.5%
- Activity [8]: 114%
- Activity [9]: 97%
- Activity [10]: 102%
- Activity [11]: 96.5%
- Activity [12]: 127%
- Activity [13]: 98%
- Activity [14]: 128%
- Activity [15]: 104%
- Activity [16]: 99%
- Activity [17]: 97%
- Activity [18]: 110%
- Activity [19]: 99.5%
- Activity [20]: 98.5%
- Activity [21]: 102%
- Activity [22]: 86%
- Activity [23]: 97.5%
- Activity [24]: 108%
- Activity [25]: 104%
- Activity [26]: 118%
- Activity [27]: 106%
- Activity [28]: 106%
- Activity [29]: 102%
- Activity [30]: 97%
- Activity [31]: 117%
- Activity [32]: 104%
- Activity [33]: 95.5%
- Activity [34]: 95%
- Activity [35]: 102%
- Activity [36]: 116%
- Activity [37]: 87%

Reference: ChEMBL document CHEMBL3232845 (Bioorg Med Chem Lett, 2014)
